Experimental findings from patent US10968225B2, “Compounds and compositions for the treatment of cystic fibrosis” (Fondazione Istituto Italiano Di Tecnologia, priority 2017, dated 2021) are described below.

One assay deals with T1, mutant CFTR (Homo sapiens, UniProt P13569, DEL508-508).
T1 construct: expressed in transfected cells
T1 sequence (P13569 with tags, fused parts or gaps DEL508-508): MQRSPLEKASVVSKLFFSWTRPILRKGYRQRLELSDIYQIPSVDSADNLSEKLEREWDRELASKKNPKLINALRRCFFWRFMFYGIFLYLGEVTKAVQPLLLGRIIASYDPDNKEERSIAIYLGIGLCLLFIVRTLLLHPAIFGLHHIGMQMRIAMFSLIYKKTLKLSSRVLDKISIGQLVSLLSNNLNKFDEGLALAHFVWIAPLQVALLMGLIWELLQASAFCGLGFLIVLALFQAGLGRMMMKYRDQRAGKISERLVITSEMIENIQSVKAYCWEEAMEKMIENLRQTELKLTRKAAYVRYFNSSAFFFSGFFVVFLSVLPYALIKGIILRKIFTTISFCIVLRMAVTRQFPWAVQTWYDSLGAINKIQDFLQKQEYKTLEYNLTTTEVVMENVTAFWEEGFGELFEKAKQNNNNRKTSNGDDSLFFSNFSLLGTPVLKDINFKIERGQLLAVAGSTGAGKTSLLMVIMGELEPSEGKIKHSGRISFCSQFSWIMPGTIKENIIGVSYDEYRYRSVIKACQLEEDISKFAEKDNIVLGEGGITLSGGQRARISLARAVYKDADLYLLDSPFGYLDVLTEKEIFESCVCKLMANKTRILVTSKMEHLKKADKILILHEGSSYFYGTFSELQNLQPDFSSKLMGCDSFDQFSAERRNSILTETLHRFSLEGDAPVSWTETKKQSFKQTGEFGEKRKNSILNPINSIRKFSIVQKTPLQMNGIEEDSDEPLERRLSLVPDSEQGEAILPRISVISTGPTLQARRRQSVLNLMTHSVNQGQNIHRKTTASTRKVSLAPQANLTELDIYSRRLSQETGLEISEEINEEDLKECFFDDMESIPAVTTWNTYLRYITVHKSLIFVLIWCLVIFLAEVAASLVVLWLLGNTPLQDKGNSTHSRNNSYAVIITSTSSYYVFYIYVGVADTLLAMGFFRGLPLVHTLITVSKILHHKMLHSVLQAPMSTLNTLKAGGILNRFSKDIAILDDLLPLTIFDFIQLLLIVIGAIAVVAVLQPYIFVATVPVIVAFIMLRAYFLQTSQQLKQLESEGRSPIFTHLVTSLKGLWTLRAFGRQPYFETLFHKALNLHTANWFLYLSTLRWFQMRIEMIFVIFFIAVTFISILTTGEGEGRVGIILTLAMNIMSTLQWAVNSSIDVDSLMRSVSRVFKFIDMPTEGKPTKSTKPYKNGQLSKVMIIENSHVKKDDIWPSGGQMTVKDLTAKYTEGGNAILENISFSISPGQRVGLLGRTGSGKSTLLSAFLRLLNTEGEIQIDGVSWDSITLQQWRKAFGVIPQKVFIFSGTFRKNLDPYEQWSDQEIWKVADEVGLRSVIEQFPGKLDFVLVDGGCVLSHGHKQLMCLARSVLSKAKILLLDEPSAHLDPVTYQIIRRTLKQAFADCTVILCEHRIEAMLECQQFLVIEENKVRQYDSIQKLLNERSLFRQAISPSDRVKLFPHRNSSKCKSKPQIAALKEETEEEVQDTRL
Put plainly: Fluorescence (HS-YFP) assay for CFTR activity, corrector assay. Format: cell-based. The conditions noted are these: CFBE41o- and FRT cells with stable expression of mutant CFTR, read-out: activity (EC50).
In general, EC50 refers to the concentration that produces a half-maximal response. For `CN(C(=O)c1cccc(-n2nc(C(F)(F)F)c3c2C(Oc2ccc(CC(=O)O)cc2)CCC3)c1)c1ccc2c(c1)OC(F)(F)O2` (racemic) [Compound 318, 2-[4-[[1-[3-[(2,2-Difluoro-1,3-benzodioxol-5-yl)-methyl-carbamoyl]phenyl]-3-(trifluoromethyl)-4,5,6,7-tetrahydroindazol-7-yl]oxy]phenyl]acetic acid], the EC50 was under 1 µM. As to `CN(C(=O)c1cccc(-n2nc(C(F)(F)F)c3c2C[C@H]2CC[C@@H]3N2)c1)c1ccc2c(c1)OCO2` (single isomer, unassigned) [Compound 048, (4R,7S)- or (4S,7R)—N-(Benzo[d][1,3]dioxol-5-yl)-N-methyl-3-(3-(trifluoromethyl)-5,6,7,8-tetrahydro-4,7-epiminocyclohepta [c]pyrazol-1(4H)-yl)benzamide], the EC50 is under 1 µM. Turning to `CN(C(=O)c1cccc(-n2nc(C(F)(F)F)c3c2C[C@H]2CC[C@@H]3N2C)c1)c1ccc2c(c1)OCO2` (single isomer, unassigned) [Compound 050, (4R,7S)- or (4S,7R)—N-(Benzo[d][1,3]dioxol-5-yl)-N-methyl-3-(9-methyl-3-(trifluoromethyl)-5,6,7,8-tetrahydro-4,7-epiminocyclohepta[c]pyrazol-1(4H)-yl)benzamide], the EC50 was under 1 µM. Take `CN(C(=O)c1cccc(-n2nc(C(F)(F)F)c3c2C[C@H]2CC[C@@H]3N2C(=O)OC(C)(C)C)c1)c1ccc2c(c1)OCO2` (single isomer, unassigned) [Compound 052, (4R,7S)- or (4S,7R)-tert-Butyl-1-(3-(benzo[d][1,3]dioxol-5-yl(methyl)carbamoyl)phenyl)-3-(trifluoromethyl)-1,4,5,6,7,8-hexahydro-4,7-epiminocyclohepta[c]pyrazole-9-carboxylate]: the EC50 was under 1 µM.

Turning to `CN(C(=O)c1cccc(-n2nc(C(F)(F)F)c3c2C[C@@H]2CC[C@H]3N2C(=O)OC(C)(C)C)c1)c1ccc2c(c1)OCO2` (single isomer, unassigned) [Compound 053, (4S,7R)- or (4R,7S)-tert-Butyl-1-(3-(benzo[d][1,3]dioxol-5-yl(methyl)carbamoyl)phenyl)-3-(trifluoromethyl)-1,4,5,6,7,8-hexahydro-4,7-epiminocyclohepta[c]pyrazole-9-carboxylate], the 50% effective concentration (EC50) is under 1 µM. Turning to `CN(C(=O)c1cccc(-n2nc(C(F)(F)F)c3c2C[C@H]2CC[C@@H]3N2C(=O)C(C)(C)C)c1)c1ccc2c(c1)OCO2` (single isomer, unassigned) [Compound 087, (4R,7S)- or (4S,7R)—N-(Benzo[d][1,3]dioxol-5-yl)-N-methyl-3-[(9-pivaloyl-3-(trifluoromethyl)-5,6,7,8-tetrahydro-4,7-epiminocyclohepta[c]pyrazol-1(4H)-yl)]benzamide], the EC50 is under 1 µM. On the same count and under the same terms, next, `CN(C(=O)c1cccc(-n2nc(C(F)(F)F)c3c2C[C@@H]2CC[C@H]3N2C(=O)C(C)(C)C)c1)c1ccc2c(c1)OCO2` (single isomer, unassigned) [Compound 088, (4R,7S)- or (4S,7R)—N-(Benzo[d][1,3]dioxol-5-yl)-N-methyl-3-[(9-pivaloyl-3-(trifluoromethyl)-5,6,7,8-tetrahydro-4,7-epiminocyclohepta[c]pyrazol-1(4H)-yl)]benzamide]: under 1 µM; `Cc1noc(C)c1S(=O)(=O)N1[C@@H]2CC[C@H]1c1c(C(F)(F)F)nn(-c3cccc(C(=O)N(C)c4ccc5c(c4)OCO5)c3)c1C2` (single isomer, unassigned) [Compound 128, (4S,7R)- or (4R,7S)—N-(Benzo[d][1,3]dioxol-5-yl)-3-(9-((3,5-dimethylisoxazol-4-yl)sulfonyl)-3-(trifluoromethyl)-5,6,7,8-tetrahydro-4,7-epiminocyclohepta[c]pyrazol-1(4H)-yl)-N-methylbenzamide]: under 1 µM; `Cc1noc(C)c1S(=O)(=O)N1[C@H]2CC[C@@H]1c1c(C(F)(F)F)nn(-c3cccc(C(=O)N(C)c4ccc5c(c4)OCO5)c3)c1C2` (single isomer, unassigned) [Compound 129, (4R,7S)- or (4S,7R)—N-(Benzo[d][1,3]dioxol-5-yl)-3-(9-((3,5-dimethylisoxazol-4-yl)sulfonyl)-3-(trifluoromethyl)-5,6,7,8-tetrahydro-4,7-epiminocyclohepta[c]pyrazol-1(4H)-yl)-N-methylbenzamide]: under 1 µM.

In the case of `Cc1n[nH]c(C)c1S(=O)(=O)N1[C@H]2CC[C@@H]1c1c(C(F)(F)F)nn(-c3cccc(C(=O)N(C)c4ccc5c(c4)OCO5)c3)c1C2` (single isomer, unassigned) [Compound 130, (4R,7S)- or (4S,7R)—N-(Benzo[d][1,3]dioxol-5-yl)-3-(9-((3,5-dimethyl-1H-pyrazol-4-yl)sulfonyl)-3-(trifluoromethyl)-5,6,7,8-tetrahydro-4,7-epiminocyclohepta[c]pyrazol-1(4H)-yl)-N-methylbenzamide], the EC50 was under 1 µM. On the same count and under the same terms, the result for `CN(C(=O)c1cccc(-n2nc(C(F)(F)F)c3c2C[C@@H]2CC[C@H]3N2C2CCC2)c1)c1ccc2c(c1)OCO2` (single isomer, unassigned) [Compound 131, (4R,7S)- or (4S,7R)—N-(Benzo[d][1,3]dioxol-5-yl)-3-(9-cyclobutyl-3-(trifluoromethyl)-5,6,7,8-tetrahydro-4,7-epiminocyclohepta[c]pyrazol-1(4H)-yl)-N-methylbenzamide] reads under 1 µM; that for `CN(C(=O)c1cccc(-n2nc(C(F)(F)F)c3c2C(Oc2ccc(C(=O)O)cc2)CCC3)c1)c1ccc2c(c1)OC(F)(F)O2` (single isomer, unassigned) [Compound 150, (R) or (S)-4-[[1-[3-[(2,2-Difluoro-1,3-benzodioxol-5-yl)-methyl-carbamoyl]phenyl]-3-(trifluoromethyl)-4,5,6,7-tetrahydroindazol-7-yl]oxy]benzoic acid], under 1 µM; that for `CN(C(=O)c1cccc(-n2nc(C(F)(F)F)c3c2C(Oc2ccc(C(=O)O)cc2)CCC3)c1)c1ccc2c(c1)OC(F)(F)O2` (single isomer, unassigned) [Compound 151, (S) or (R)-4-[[1-[3-[(2,2-Difluoro-1,3-benzodioxol-5-yl)-methyl-carbamoyl]phenyl]-3-(trifluoromethyl)-4,5,6,7-tetrahydroindazol-7-yl]oxy]benzoic acid], under 1 µM. Still for that read-out and setting: next, `CN(C(=O)c1cccc(-n2nc(C(F)(F)F)c3c2C(Oc2ccc(C(=O)O)nc2)CCC3)c1)c1ccc2c(c1)OC(F)(F)O2` (single isomer, unassigned) [Compound 185, (S) or (R)-5-[[-1-[3-[(2,2-Difluoro-1,3-benzodioxol-5-yl)-methyl-carbamoyl]phenyl]-3-(trifluoromethyl)-4,5,6,7-tetrahydroindazol-7-yl]oxy]pyridine-2-carboxylic acid]: under 1 µM. As to `CN(C(=O)c1cccc(-n2nc(C(F)(F)F)c3c2C(Oc2ccc(C(=O)O)nc2)CCC3)c1)c1ccc2c(c1)OC(F)(F)O2` (single isomer, unassigned) [Compound 186, (R) or (S)-5-[[1-[3-[(2,2-Difluoro-1,3-benzodioxol-5-yl)-methyl-carbamoyl]phenyl]-3-(trifluoromethyl)-4,5,6,7-tetrahydroindazol-7-yl]oxy]pyridine-2-carboxylic acid], the EC50 was under 1 µM. With `CN(C(=O)c1cccc(-n2nc(C(F)(F)F)c3c2C(Oc2cccc(C(=O)O)c2)CCC3)c1)c1ccc2c(c1)OC(F)(F)O2` (single isomer, unassigned) [Compound 188, (S) or (R)-3-[[1-[3-[(2,2-Difluoro-1,3-benzodioxol-5-yl)-methyl-carbamoyl]phenyl]-3-(trifluoromethyl)-4,5,6,7-tetrahydroindazol-7-yl]oxy]benzoic acid], the EC50 is under 1 µM.

Regarding `CN(C(=O)c1cccc(-n2nc(C(F)(F)F)c3c2C(Oc2cccc(C(=O)O)c2)CCC3)c1)c1ccc2c(c1)OC(F)(F)O2` (single isomer, unassigned) [Compound 190, (R) or (S)-3-[[1-[3-[(2,2-Difluoro-1,3-benzodioxol-5-yl)-methyl-carbamoyl]phenyl]-3-(trifluoromethyl)-4,5,6,7-tetrahydroindazol-7-yl]oxy]benzoic acid], the EC50 was under 1 µM. In the case of `CN(C(=O)c1cccc(-n2nc(C(F)(F)F)c3c2C(Oc2ccc(C(=O)O)cn2)CCC3)c1)c1ccc2c(c1)OC(F)(F)O2` (single isomer, unassigned) [Compound 192, (S) or (R)-6-[[1-[3-[(2,2-Difluoro-1,3-benzodioxol-5-yl)-methyl-carbamoyl]phenyl]-3-(trifluoromethyl)-4,5,6,7-tetrahydroindazol-7-yl]oxy]pyridine-3-carboxylic acid], the EC50 is under 1 µM. For the compound `CN(C(=O)c1cccc(-n2nc(C(F)(F)F)c3c2C(Oc2ccc(C(=O)O)cn2)CCC3)c1)c1ccc2c(c1)OC(F)(F)O2` (single isomer, unassigned) [Compound 194, (R) or (S)-6-[[1-[3-[(2,2-Difluoro-1,3-benzodioxol-5-yl)-methyl-carbamoyl]phenyl]-3-(trifluoromethyl)-4,5,6,7-tetrahydroindazol-7-yl]oxy]pyridine-3-carboxylic acid], the EC50 was under 1 µM.

Still in this assay, the particulars now being: activity (EC50), CFBE41o- and FRT cells with stable expression of mutant CFTR.
Regarding `CN(C(=O)c1cccc(-n2nc(C(F)(F)F)c3c2C[C@@H]2CC[C@H]3N2)c1)c1ccc2c(c1)OCO2` (single isomer, unassigned) [Compound 049, (4S,7R)- or (4R,7S)—N-(Benzo[d][1,3]dioxol-5-yl)-N-methyl-3-(3-(trifluoromethyl)-5,6,7,8-tetrahydro-4,7-epiminocyclohepta [c]pyrazol-1(4H)-yl)benzamide], the EC50 lay in the range of 1 to 2 µM. The same measure, in the same setting: the result for `CN(C(=O)c1cccc(-n2nc(C(F)(F)F)c3c2C[C@@H]2CC[C@H]3N2C)c1)c1ccc2c(c1)OCO2` (single isomer, unassigned) [Compound 051, (4S,7R)- or (4R,7S)—N-(Benzo[d][1,3]dioxol-5-yl)-N-methyl-3-(9-methyl-3-(trifluoromethyl)-5,6,7,8-tetrahydro-4,7-epiminocyclohepta[c]pyrazol-1(4H)-yl)benzamide] reads 1 to 2 µM.
